{
  "source": "PubChem BioAssay AID192",
  "about": "(DTP/NCI, 2004)",
  "test_system": "BDF1 mice, B16 melanoma ip, median survival T/C",
  "experiment": "NCI In Vivo Anticancer Drug Screen. Data for tumor model B16 Melanoma (intraperitoneal) in B6D2F1 (BDF1) mice",
  "settings": "endpoint: median survival time, higher = longer survival",
  "outline": "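Antitumor activity is assessed in mice bearing a transplanted tumor, with survival or tumor size compared against vehicle-dosed controls and expressed as T/C.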",
  "key": {"[1]": {"settings": "dose: 50.0 mg/kg/injection, schedule: Q01DX009 (ip), vehicle: saline"}, "[2]": {"settings": "dose: 100.0 mg/kg/injection, schedule: Q01DX009 (ip), vehicle: saline"}, "[3]": {"settings": "dose: 12.5 mg/kg/injection, schedule: Q01DX009 (ip), vehicle: Klucel (hydroxypropylcellulose) (HPC)"}, "[4]": {"settings": "dose: 25.0 mg/kg/injection, schedule: Q01DX009 (ip), vehicle: Klucel (hydroxypropylcellulose) (HPC)"}, "[5]": {"settings": "dose: 12.5 mg/kg/injection, schedule: Q01DX009 (ip), vehicle: saline with Tween-80"}, "[6]": {"settings": "dose: 100.0 mg/kg/injection, schedule: Q01DX009 (ip), vehicle: Klucel (hydroxypropylcellulose) (HPC)"}, "[7]": {"settings": "dose: 200.0 mg/kg/injection, schedule: Q01DX009 (ip), vehicle: Klucel (hydroxypropylcellulose) (HPC)"}, "[8]": {"settings": "dose: 50.0 mg/kg/injection, schedule: Q01DX009 (ip), vehicle: Klucel (hydroxypropylcellulose) (HPC)"}, "[9]": {"settings": "dose: 12.5 mg/kg/injection, schedule: Q01DX009 (ip), vehicle: saline"}, "[10]": {"settings": "dose: 25.0 mg/kg/injection, schedule: Q01DX009 (ip), vehicle: saline"}},
  "note": "Toxic doses and inconclusive results are not listed.",
  "data": [
    {"smiles": "NC(=O)c1ncc[nH]c1=O", "values": [
      {"measurement": "T/C", "setting": "[1]", "result": "118 % of control"},
      {"measurement": "T/C", "setting": "[2]", "result": "124 % of control"}
    ]},
    {"smiles": "O=C1c2ccccc2C(=O)c2c(NCCN3CCCCC3)ccc(NCCN3CCCCC3)c21", "values": [
      {"measurement": "T/C", "setting": "dose: 16.0 mg/kg/injection, schedule: Q01DX009 (ip), vehicle: acid diluted with saline", "result": "107 % of control"}
    ]},
    {"smiles": "COc1cccc(/C=C/C(=O)O)c1OC", "values": [
      {"measurement": "T/C", "setting": "dose: 50.0 mg/kg/injection, schedule: Q01DX009 (ip), vehicle: other", "result": "101 % of control"},
      {"measurement": "T/C", "setting": "dose: 100.0 mg/kg/injection, schedule: Q01DX009 (ip), vehicle: other", "result": "107 % of control"},
      {"measurement": "T/C", "setting": "dose: 200.0 mg/kg/injection, schedule: Q01DX009 (ip), vehicle: other", "result": "98 % of control"},
      {"measurement": "T/C", "setting": "dose: 400.0 mg/kg/injection, schedule: Q01DX009 (ip), vehicle: other", "result": "93 % of control"}
    ]},
    {"smiles": "C[N+](C)(C)Cc1ccccc1", "values": [
      {"measurement": "T/C", "setting": "dose: 6.25 mg/kg/injection, schedule: Q01DX009 (ip), vehicle: Klucel (hydroxypropylcellulose) (HPC)", "result": "109 % of control"},
      {"measurement": "T/C", "setting": "[3]", "result": "107 % of control"},
      {"measurement": "T/C", "setting": "[4]", "result": "101 % of control"}
    ]},
    {"smiles": "C[C@]12CCC(=O)C=C1CC[C@@H]1[C@@H]2C(=O)C[C@]2(C)C3=CC(=O)O[C@H]3C[C@@H]12", "values": [
      {"measurement": "T/C", "setting": "[5]", "result": "100 % of control"},
      {"measurement": "T/C", "setting": "dose: 25.0 mg/kg/injection, schedule: Q01DX009 (ip), vehicle: saline with Tween-80", "result": "100 % of control"}
    ]},
    {"smiles": "CCOC(CNC(=O)CC(C)=O)OCC", "values": [
      {"measurement": "T/C", "setting": "[2]", "result": "110 % of control"},
      {"measurement": "T/C", "setting": "dose: 200.0 mg/kg/injection, schedule: Q01DX009 (ip), vehicle: saline", "result": "118 % of control"},
      {"measurement": "T/C", "setting": "dose: 400.0 mg/kg/injection, schedule: Q01DX009 (ip), vehicle: saline", "result": "106 % of control"}
    ]},
    {"smiles": "CC1(C)N=C(N)N=C(N)N1c1cccc(CNC(=O)Nc2cccc(S(=O)(=O)F)c2)c1", "values": [
      {"measurement": "T/C", "setting": "[1]", "result": "101 % of control"}
    ]},
    {"smiles": "Cc1c2oc3c(C)ccc(C(=O)NCCN4CCCCC4)c3nc-2c(C(=O)NCCN2CCCCC2)c(N)c1=O", "values": [
      {"measurement": "T/C", "setting": "[3]", "result": "97 % of control"},
      {"measurement": "T/C", "setting": "[4]", "result": "112 % of control"}
    ]},
    {"smiles": "O=[N+]([O-])c1cc([N+](=O)[O-])c(/C=C/c2ccccc2)c([N+](=O)[O-])c1/C=C/c1ccccc1", "values": [
      {"measurement": "T/C", "setting": "[6]", "result": "105 % of control"},
      {"measurement": "T/C", "setting": "dose: 100.0 mg/kg/injection, schedule: Q04DX003 (ip), vehicle: Klucel (hydroxypropylcellulose) (HPC)", "result": "102 % of control"},
      {"measurement": "T/C", "setting": "[7]", "result": "107 % of control"},
      {"measurement": "T/C", "setting": "dose: 200.0 mg/kg/injection, schedule: Q04DX003 (ip), vehicle: Klucel (hydroxypropylcellulose) (HPC)", "result": "94 % of control"},
      {"measurement": "T/C", "setting": "dose: 400.0 mg/kg/injection, schedule: Q01DX009 (ip), vehicle: Klucel (hydroxypropylcellulose) (HPC)", "result": "94 % of control"},
      {"measurement": "T/C", "setting": "dose: 400.0 mg/kg/injection, schedule: Q04DX003 (ip), vehicle: Klucel (hydroxypropylcellulose) (HPC)", "result": "89 % of control"}
    ]},
    {"smiles": "CC(=O)Nc1ccc(Cl)c(Cl)c1", "values": [
      {"measurement": "T/C", "setting": "[8]", "result": "116 % of control"},
      {"measurement": "T/C", "setting": "[6]", "result": "121 % of control"}
    ]},
    {"smiles": "CCOC(=O)C1=C(O)c2c(sc(C)c2C)N(S(=O)(=O)c2ccc(C)cc2)CC1", "values": [
      {"measurement": "T/C", "setting": "dose: 12.5 mg/kg/injection, schedule: Q04DX003 (ip), vehicle: saline with Tween-80", "result": "116 % of control"},
      {"measurement": "T/C", "setting": "dose: 25.0 mg/kg/injection, schedule: Q04DX003 (ip), vehicle: saline with Tween-80", "result": "113 % of control"},
      {"measurement": "T/C", "setting": "dose: 50.0 mg/kg/injection, schedule: Q04DX003 (ip), vehicle: saline with Tween-80", "result": "111 % of control"},
      {"measurement": "T/C", "setting": "dose: 100.0 mg/kg/injection, schedule: Q04DX003 (ip), vehicle: saline with Tween-80", "result": "111 % of control"},
      {"measurement": "T/C", "setting": "dose: 200.0 mg/kg/injection, schedule: Q04DX003 (ip), vehicle: saline with Tween-80", "result": "108 % of control"}
    ]},
    {"smiles": "CCc1ccccc1NC(=O)c1cccc(C(=O)Nc2ccccc2CC)c1", "values": [
      {"measurement": "T/C", "setting": "[8]", "result": "102 % of control"},
      {"measurement": "T/C", "setting": "[6]", "result": "105 % of control"},
      {"measurement": "T/C", "setting": "[7]", "result": "102 % of control"}
    ]},
    {"smiles": "CC(C)=CC(=O)OCC[N+](C)(C)C", "values": [
      {"measurement": "T/C", "setting": "dose: 1.56 mg/kg/injection, schedule: Q01DX009 (ip), vehicle: saline", "result": "114 % of control"},
      {"measurement": "T/C", "setting": "dose: 3.12 mg/kg/injection, schedule: Q01DX009 (ip), vehicle: saline", "result": "112 % of control"},
      {"measurement": "T/C", "setting": "dose: 6.25 mg/kg/injection, schedule: Q01DX009 (ip), vehicle: saline", "result": "104 % of control"},
      {"measurement": "T/C", "setting": "[9]", "result": "102 % of control"},
      {"measurement": "T/C", "setting": "[10]", "result": "101 % of control"}
    ]},
    {"smiles": "O=[N+]([O-])c1ccc(C=C2C(Cl)=C(Cl)C(Cl)=C2Cl)cc1", "values": [
      {"measurement": "T/C", "setting": "dose: 3.13 mg/kg/injection, schedule: Q01DX009 (ip), vehicle: saline with Tween-80", "result": "101 % of control"},
      {"measurement": "T/C", "setting": "dose: 6.25 mg/kg/injection, schedule: Q01DX009 (ip), vehicle: saline with Tween-80", "result": "91 % of control"},
      {"measurement": "T/C", "setting": "[5]", "result": "89 % of control"}
    ]},
    {"smiles": "O=[N+]([O-])c1cc(Br)cc(Br)c1S(=O)(=O)O", "values": [
      {"measurement": "T/C", "setting": "dose: 100.0 mg/kg/injection, schedule: Q04DX003 (ip), vehicle: saline", "result": "100 % of control"},
      {"measurement": "T/C", "setting": "dose: 200.0 mg/kg/injection, schedule: Q04DX003 (ip), vehicle: saline", "result": "108 % of control"},
      {"measurement": "T/C", "setting": "dose: 400.0 mg/kg/injection, schedule: Q04DX003 (ip), vehicle: saline", "result": "104 % of control"}
    ]},
    {"smiles": "[I][Ga]([I])[I]", "values": [
      {"measurement": "T/C", "setting": "[9]", "result": "87 % of control"},
      {"measurement": "T/C", "setting": "[10]", "result": "102 % of control"}
    ]}
  ]
}
